Measurements from ChEMBL document CHEMBL5625248, “Identification of unique indolylcyanoethylenyl sulfonylanilines as novel structural scaffolds of potential antibacterial agents” (Eur J Med Chem, 2023).
Converted amounts (≈) assume the structure as drawn.

Legend:
Format in all cases: functional
Staphylococcus aureus [1] = assay: Antibacterial activity against Staphylococcus aureus ATCC 25923 assessed as inhibition of bacterial growth incubated for 18 hrs by two fold broth microdilution assay
Acinetobacter baumannii = assay: Antibacterial activity against Acinetobacter baumannii assessed as inhibition of bacterial growth incubated for 18 hrs by two fold broth microdilution assay
Escherichia coli [2] = assay: Antibacterial activity against Escherichia coli ATCC 25922 assessed as inhibition of bacterial growth incubated for 18 hrs by two fold broth microdilution assay
Escherichia coli [3] = assay: Antibacterial activity against Escherichia coli assessed as inhibition of bacterial growth incubated for 18 hrs by two fold broth microdilution assay
Pseudomonas aeruginosa [4] = assay: Antibacterial activity against Pseudomonas aeruginosa ATCC 27853 assessed as inhibition of bacterial growth incubated for 18 hrs by two fold broth microdilution assay
Staphylococcus aureus [5] = assay: Antibacterial activity against Staphylococcus aureus assessed as inhibition of bacterial growth incubated for 18 hrs by two fold broth microdilution assay
Pseudomonas aeruginosa [6] = assay: Antibacterial activity against Pseudomonas aeruginosa assessed as inhibition of bacterial growth incubated for 18 hrs by two fold broth microdilution assay
Staphylococcus aureus [7] = assay: Antibacterial activity against methicilin-resistant Staphylococcus aureus N315 assessed as inhibition of bacterial growth incubated for 18 hrs by two fold broth microdilution assay
Klebsiella pneumoniae = assay: Antibacterial activity against Klebsiella pneumoniae assessed as inhibition of bacterial growth incubated for 18 hrs by two fold broth microdilution assay
Enterococcus faecalis = assay: Antibacterial activity against Enterococcus faecalis assessed as inhibition of bacterial growth incubated for 18 hrs by two fold broth microdilution assay
Staphylococcus aureus [8] = assay: Antibacterial activity against Staphylococcus aureus ATCC 29213 assessed as inhibition of bacterial growth incubated for 18 hrs by two fold broth microdilution assay

Row | Structure (SMILES) | MIC (Staphylococcus aureus [1]) [µg/mL] | MIC (Acinetobacter baumannii) [µg/mL] | MIC (Escherichia coli [2]) [µg/mL] | MIC (Escherichia coli [3]) [µg/mL] | MIC (Pseudomonas aeruginosa [4]) [µg/mL] | MIC (Staphylococcus aureus [5]) [µg/mL] | MIC (Pseudomonas aeruginosa [6]) [µg/mL] | MIC (Staphylococcus aureus [7]) [µg/mL] | MIC (Klebsiella pneumoniae) [µg/mL] | MIC (Enterococcus faecalis) [µg/mL] | MIC (Staphylococcus aureus [8]) [µg/mL]
1 | CC(=O)Nc1ccc(S(=O)(=O)/C(C#N)=C/c2cn(Cc3ccc(Cl)cc3Cl)c3ccccc23)cc1 | 64 (≈ 122 µM) | 8 (≈ 15.3 µM) | 64 (≈ 122 µM) | 256 (≈ 488 µM) | 32 (≈ 61 µM) | 16 (≈ 30.5 µM) | 64 (≈ 122 µM) | 64 (≈ 122 µM) | 4 (≈ 7.63 µM) | 256 (≈ 488 µM) | 8 (≈ 15.3 µM)
2 | CCCCCn1cc(/C=C(\C#N)S(=O)(=O)c2ccc(N)cc2)c2ccccc21 | 128 (≈ 325 µM) | 32 (≈ 81.3 µM) | 16 (≈ 40.7 µM) | 8 (≈ 20.3 µM) | 64 (≈ 163 µM) | 256 (≈ 651 µM) | 64 (≈ 163 µM) | 256 (≈ 651 µM) | 8 (≈ 20.3 µM) | 128 (≈ 325 µM) | 16 (≈ 40.7 µM)
3 | CC(=O)Nc1ccc(S(=O)(=O)/C(C#N)=C/c2cn(CC3CCCC3)c3ccccc23)cc1 | 128 (≈ 286 µM) | 32 (≈ 71.5 µM) | 64 (≈ 143 µM) | 256 (≈ 572 µM) | 16 (≈ 35.7 µM) | 8 (≈ 17.9 µM) | 64 (≈ 143 µM) | 128 (≈ 286 µM) | 4 (≈ 8.94 µM) | 32 (≈ 71.5 µM) | 16 (≈ 35.7 µM)
4 | C=CCn1cc(/C=C(\C#N)S(=O)(=O)c2ccc(N)cc2)c2ccccc21 | 4 (≈ 11 µM) | 64 (≈ 176 µM) | 16 (≈ 44 µM) | 8 (≈ 22 µM) | 8 (≈ 22 µM) | 64 (≈ 176 µM) | 64 (≈ 176 µM) | 32 (≈ 88 µM) | 8 (≈ 22 µM) | 8 (≈ 22 µM) | 4 (≈ 11 µM)
5 | CC(=O)Nc1ccc(S(=O)(=O)/C(C#N)=C/c2c[nH]c3c(C)cccc23)cc1 | 128 (≈ 337 µM) | 16 (≈ 42.2 µM) | 4 (≈ 10.5 µM) | 4 (≈ 10.5 µM) | 64 (≈ 169 µM) | 32 (≈ 84.3 µM) | 64 (≈ 169 µM) | 64 (≈ 169 µM) | 4 (≈ 10.5 µM) | 32 (≈ 84.3 µM) | 32 (≈ 84.3 µM)
6 | CC(=O)Nc1ccc(S(=O)(=O)/C(C#N)=C/c2cn(CC(=O)N3CCCCC3)c3ccccc23)cc1 | 2 (≈ 4.08 µM) | 64 (≈ 130 µM) | 256 (≈ 522 µM) | 128 (≈ 261 µM) | 256 (≈ 522 µM) | 256 (≈ 522 µM) | 8 (≈ 16.3 µM) | 128 (≈ 261 µM) | 64 (≈ 130 µM) | 128 (≈ 261 µM) | 128 (≈ 261 µM)
7 | N#C/C(=C\c1cn(Cc2ccc([N+](=O)[O-])cc2)c2ccccc12)S(=O)(=O)c1ccc(N)cc1 | 256 (≈ 558 µM) | 64 (≈ 140 µM) | 128 (≈ 279 µM) | 128 (≈ 279 µM) | 128 (≈ 279 µM) | 256 (≈ 558 µM) | 64 (≈ 140 µM) | 128 (≈ 279 µM) | 64 (≈ 140 µM) | 128 (≈ 279 µM) | 128 (≈ 279 µM)
8 | N#C/C(=C\c1cn(Cc2ccc(F)cc2F)c2ccccc12)S(=O)(=O)c1ccc(N)cc1 | 64 (≈ 142 µM) | 16 (≈ 35.6 µM) | 64 (≈ 142 µM) | 256 (≈ 570 µM) | 64 (≈ 142 µM) | 32 (≈ 71.2 µM) | 64 (≈ 142 µM) | 256 (≈ 570 µM) | 4 (≈ 8.9 µM) | 256 (≈ 570 µM) | 8 (≈ 17.8 µM)
9 | N#C/C(=C\c1cn(Cc2ccccc2Cl)c2ccccc12)S(=O)(=O)c1ccc(N)cc1 | 1 (≈ 2.23 µM) | 16 (≈ 35.7 µM) | 64 (≈ 143 µM) | 32 (≈ 71.4 µM) | 2 (≈ 4.46 µM) | 1 (≈ 2.23 µM) | 16 (≈ 35.7 µM) | 256 (≈ 571 µM) | 1 (≈ 2.23 µM) | 16 (≈ 35.7 µM) | 2 (≈ 4.46 µM)
10 | CC(C)=CCn1cc(/C=C(\C#N)S(=O)(=O)c2ccc(N)cc2)c2ccccc21 | 16 (≈ 40.9 µM) | 0.5 (≈ 1.28 µM) | 8 (≈ 20.4 µM) | 8 (≈ 20.4 µM) | 8 (≈ 20.4 µM) | 64 (≈ 163 µM) | 2 (≈ 5.11 µM) | 32 (≈ 81.7 µM) | 8 (≈ 20.4 µM) | 128 (≈ 327 µM) | 128 (≈ 327 µM)
11 | N#C/C(=C\c1cn(CC2CCCC2)c2ccccc12)S(=O)(=O)c1ccc(N)cc1 | 256 (≈ 631 µM) | 32 (≈ 78.9 µM) | 8 (≈ 19.7 µM) | 256 (≈ 631 µM) | 64 (≈ 158 µM) | 256 (≈ 631 µM) | 64 (≈ 158 µM) | 256 (≈ 631 µM) | 4 (≈ 9.86 µM) | 32 (≈ 78.9 µM) | 16 (≈ 39.5 µM)
12 | CC(=O)Nc1ccc(S(=O)(=O)/C(C#N)=C/c2cn(CC(=O)N3CCOCC3)c3ccccc23)cc1 | 64 (≈ 130 µM) | 128 (≈ 260 µM) | 128 (≈ 260 µM) | 256 (≈ 520 µM) | 256 (≈ 520 µM) | 256 (≈ 520 µM) | 64 (≈ 130 µM) | 16 (≈ 32.5 µM) | 128 (≈ 260 µM) | 64 (≈ 130 µM) | 2 (≈ 4.06 µM)
13 | N#C/C(=C\c1cn(Cc2ccc(Cl)c(Cl)c2)c2ccccc12)S(=O)(=O)c1ccc(N)cc1 | 16 (≈ 33.2 µM) | 4 (≈ 8.29 µM) | 0.5 (≈ 1.04 µM) | 256 (≈ 531 µM) | 64 (≈ 133 µM) | 128 (≈ 265 µM) | 31 (≈ 64.3 µM) | 16 (≈ 33.2 µM) | 4 (≈ 8.29 µM) | 128 (≈ 265 µM) | 4 (≈ 8.29 µM)
14 | CC(=O)Nc1ccc(S(=O)(=O)/C(C#N)=C/c2cn(CC(=O)N3CCCC3)c3ccccc23)cc1 | 128 (≈ 269 µM) | 64 (≈ 134 µM) | 128 (≈ 269 µM) | 64 (≈ 134 µM) | 128 (≈ 269 µM) | 128 (≈ 269 µM) | 64 (≈ 134 µM) | 256 (≈ 537 µM) | 64 (≈ 134 µM) | 128 (≈ 269 µM) | 16 (≈ 33.6 µM)
15 | CC(=O)Nc1ccc(S(=O)(=O)/C(C#N)=C/c2cn(C(=O)OC(C)(C)C)c3ccccc23)cc1 | 128 (≈ 275 µM) | 64 (≈ 137 µM) | 128 (≈ 275 µM) | 128 (≈ 275 µM) | 128 (≈ 275 µM) | 128 (≈ 275 µM) | 128 (≈ 275 µM) | 32 (≈ 68.7 µM) | 128 (≈ 275 µM) | 128 (≈ 275 µM) | 2 (≈ 4.3 µM)
16 | CC(=O)Nc1ccc(S(=O)(=O)/C(C#N)=C/c2cn(Cc3cccc(Cl)c3)c3ccccc23)cc1 | 128 (≈ 261 µM) | 64 (≈ 131 µM) | 4 (≈ 8.16 µM) | 128 (≈ 261 µM) | 64 (≈ 131 µM) | 64 (≈ 131 µM) | 64 (≈ 131 µM) | 128 (≈ 261 µM) | 16 (≈ 32.7 µM) | 256 (≈ 522 µM) | 8 (≈ 16.3 µM)
17 | CC(=O)Nc1ccc(S(=O)(=O)/C(C#N)=C/c2c[nH]c3cc(Br)ccc23)cc1 | 128 (≈ 288 µM) | 16 (≈ 36 µM) | 64 (≈ 144 µM) | 128 (≈ 288 µM) | 16 (≈ 36 µM) | 32 (≈ 72 µM) | 64 (≈ 144 µM) | 64 (≈ 144 µM) | 4 (≈ 9 µM) | 32 (≈ 72 µM) | 32 (≈ 72 µM)
18 | N#C/C(=C\c1c[nH]c2ccc([N+](=O)[O-])cc12)S(=O)(=O)c1ccc(N)cc1 | 128 (≈ 347 µM) | 64 (≈ 174 µM) | 8 (≈ 21.7 µM) | 128 (≈ 347 µM) | 16 (≈ 43.4 µM) | 64 (≈ 174 µM) | 64 (≈ 174 µM) | 128 (≈ 347 µM) | 4 (≈ 10.9 µM) | 128 (≈ 347 µM) | 64 (≈ 174 µM)
19 | CC(=O)Nc1ccc(S(=O)(=O)/C(C#N)=C/c2c[nH]c3cccc(Cl)c23)cc1 | 128 (≈ 320 µM) | 16 (≈ 40 µM) | 16 (≈ 40 µM) | 128 (≈ 320 µM) | 32 (≈ 80 µM) | 32 (≈ 80 µM) | 64 (≈ 160 µM) | 64 (≈ 160 µM) | 4 (≈ 10 µM) | 32 (≈ 80 µM) | 32 (≈ 80 µM)
20 | CC(=O)Nc1ccc(S(=O)(=O)/C(C#N)=C/c2cn(CC3CCCCC3)c3ccccc23)cc1 | 64 (≈ 139 µM) | 32 (≈ 69.3 µM) | 32 (≈ 69.3 µM) | 256 (≈ 555 µM) | 2 (≈ 4.33 µM) | 32 (≈ 69.3 µM) | 64 (≈ 139 µM) | 64 (≈ 139 µM) | 128 (≈ 277 µM) | 32 (≈ 69.3 µM) | 64 (≈ 139 µM)
